Measurements as given in paper PMC11317440, “Soloxolone para-methylanilide effectively suppresses aggressive phenotype of glioblastoma cells including TGF-β1-induced glial-mesenchymal transition in vitro and inhibits growth of U87 glioblastoma xenografts in mice” (Frontiers in Pharmacology, 2024).

What was measured:
[1] = tested on: EPNT-5 glioblastoma cells; experiment: MTT cell viability assay, EPNT-5 cells, 48 h; assay type: cell-based; conditions: Mus musculus
Description: (§1) Cells were seeded in quadruplicate in 96-well plates at 10,000 cells/well and allowed to adhere overnight. The medium was then replaced with serum-free DMEM containing increasing concentrations of soloxolone amides for 48 h. After incubation, 3-(4,5-dimethylthiazol-2-yl)-2,5-diphenyltetrazolium bromide (MTT dye) was added at a final concentration of 0.5 mg/mL and left for 2 h. The resulting formazan crystals were dissolved in DMSO and the optical density was measured at 570 nm using a Multiscan RC plate reader (Thermo LabSystems, Helsinki, Finland).

[2] = Toxicity assessment in U87 glioblastoma-bearing mice; assay type: in vivo, athymic nude mice; conditions: 7 20 mg/kg i.p. or TMZ 10 mg/kg i.p. injected alone
Description: During the experiment, the general status and body weight of the animals were monitored. At the end of the experiment, livers and kidneys were collected and organ indices were calculated as (organ weight/body weight) × 100%, followed by the normalization of organ indices of experimental mice to organ indices of control mice.

[3] = tested on: U87 glioblastoma tumor tissue; experiment: Histology and immunohistochemistry of U87 xenograft tumors; assay type: in vivo, athymic nude mice; conditions: day 19
Description: For the histological study, the tumor specimens were fixed in 10% neutral-buffered formalin (BioVitrum, Moscow, Russia), dehydrated in ascending ethanols and xylols and embedded in HISTOMIX paraffin (BioVitrum, Russia). The paraffin sections (3–4 µm) were sliced on a Microm HM 355S microtome (Thermo Fisher Scientific, Waltham, MA, USA) and stained with hematoxylin and eosin.
For the immunohistochemical study, the tumor sections were deparaffinized and rehydrated. Antigen retrieval was carried out after exposure in a microwave oven at 700 W. The samples were incubated with anti-Ki-67 (ab16667, Abcam, Boston, MA, USA) (n = 3), anti-GFAP (ab194325, Abcam, USA) (n = 3), and anti-N-cadherin (ab76011, Abcam, USA) (n = 3) primary antibodies according to the manufacturer’s protocol. Then, the sections were incubated with secondary horseradish peroxidase (HPR)-conjugated antibodies, exposed to the 3,30-diaminobenzidine (DAB) substrate (Rabbit Specific HRP/DAB (ABC) Detection IHC Kit, ab64261, Abcam, USA) and stained with Mayer’s hematoxylin.
Five to ten random fields were examined from the tumor specimens of three mice in each group, for a total of 15–30 test fields.

[4] = tested on: U87 glioblastoma xenograft; experiment: U87 glioblastoma xenograft model; assay type: in vivo, athymic nude mice; conditions: 7 20 mg/kg i.p.
Description: A xenograft model of tumor progression was induced by subcutaneous (s.c.) implantation of U87 glioblastoma cells (2×10^7 cells/mL) suspended in 0.1 mL of saline buffer into the left flank of athymic nude mice. On day 4 after tumor transplantation, the mice were divided into four groups: (1) mice received intraperitoneal (i.p.) injections of 10% Tween-80 (vehicle) (n = 6); (2) mice received i.p. injections of compound 7 in 10% Tween-80 at a dose of 20 mg/kg (n = 5); (3) mice received i.p. injections of TMZ in saline buffer at a dose of 10 mg/kg (n = 5); (4) mice received combination therapy of compound 7 and TMZ at the same dosage and administration route (n = 6). Compound 7 was administered three times per week; in total seven injections were performed. TMZ was administered daily except weekends; in total eleven injections were performed. During the experiment, the tumor volumes were determined three times per week using caliper measurements and were calculated as V = (D × d^2)/2, where D is the longest diameter of the tumor node and d is the shortest diameter of the tumor node perpendicular to D. Mice were sacrificed on day 19 after tumor transplantation and material (tumor nodes, livers, and kidneys) was collected for subsequent analysis.

[5] = tested on: aldehyde dehydrogenase (ALDH) activity in U87 primary tumorspheres; experiment: ALDH activity in U87 tumorspheres (AldeRed, flow cytometry); assay type: cell-based, human; conditions: 7 at 50 and 100 nM, regardless of the dose, 4 days
Description: To assess ALDH activity, U87 cells were dissociated from spheroids using TrypLE Express after 4 days of induction with compound 7 (0–100 nM) (n = 3). Cells were then stained with the AldeRed ALDH Detection Assay (SCR150; EMD Millipore, Burlington, MA, USA) according to the manufacturer’s protocol. Experimental controls included U87 cells grown in 2D culture and cells treated with the ALDH inhibitor diethylaminobenzaldehyde (DEAB). Gates of ALDH-positive cells were set according to the inhibitory effect of DEAB on control cells.
After staining, 10,000 cells per sample were analyzed on a NovoCyte flow cytometer using NovoExpress software (ACEA Biosciences, Inc., USA).

U87 glioblastoma cells = experiment: MTT cell viability assay, U87 cells, 48 h; assay type: cell-based, human
Description: as §1

[6] = tested on: non-malignant human hFF3 fibroblasts; experiment: MTT cell viability assay, hFF3 fibroblasts, 48 h; assay type: cell-based; conditions: 7 at 400 nM
Description: as §1

U118 cells = experiment: Colony formation assay, U118 cells; assay type: cell-based; conditions: Homo sapiens, 240 h, 10 days
Description: U87, U118 and EPNT-5 cells were seeded at a density of 200 cells/well in 96-well plates and treated with increasing concentrations of compound 7 (0–1,000 nM) dissolved in 10% FBS-containing DMEM (n = 5). On day 10, colonies were fixed with 4% formaldehyde and stained with crystal violet dye (0.1% w/v). Images were captured using the iBright 1,500 Imaging System (Invitrogen, USA) and the area of colonies with a minimum diameter of 100 µm was calculated using ImageJ. In the case of overlapping colonies, their total area was calculated. Finally, the area of the formed cell colonies was summed and normalized to the total colony area in the control.

[7] = tested on: TGF-β1-induced U118 cells; experiment: Cell morphology (aspect ratio) of TGF-β1-induced U118 cells; assay type: cell-based, human; conditions: TGF-β1 50 ng/mL, 7 50 nM, 48 h
Description: After seeding at a concentration of 5,000 cells/well in triplicate in 96-well plates and incubating overnight, U87 and U118 cells were exposed to TGF-β1 (50 ng/mL) and non-toxic concentrations of soloxolone amides for 48 h. An EVOS XL Core microscope with an integrated CMOS camera (Thermo Fisher Scientific, USA) was then used to examine cell morphology at ×20 magnification. Aspect ratio (AR) and area were quantified for at least 150 cells in each experimental group using ImageJ software (NIH, USA).

Compound: Cc1ccc(NC(=O)[C@@]2(C)CC[C@]3(C)CC[C@]4(C)[C@H](C(=O)C=C5[C@@]6(C)C=C(C#N)C(=O)C(C)(C)C6CC[C@]54C)[C@@H]3C2)cc1 (some centres unmarked) [compound 7, N-p-tolyl-2-cyano-3,12-dioxo-18βH-olean-9(11),1(2)-dien-30-amide]
- IC50 [1]: 257 nM
- toxic effects (body weight and organ indices) [2]: no toxic effects
- N-cadherin and GFAP levels in tumor sections (immunohistochemistry) [3]: significantly reduced their levels
- reduction in the numerical density of Ki-67-positive cells compared to vehicle [3]: 4 fold
- reduction in tumor volume compared to the vehicle group ([4]; day 11): 2.1 fold
- reduction in tumor volume compared to the vehicle group ([4]; day 13): 3.2 fold
- reduction in tumor volume compared to the vehicle group ([4]; day 15, TMZ 10 mg/kg i.p.): 6.6 fold
- reduction in tumor volume compared to the vehicle group ([4]; day 18, TMZ 10 mg/kg i.p.): 7.2 fold
- reduction in tumor weight compared to the vehicle ([4]; end of the experiment (day 19), TMZ 10 mg/kg i.p.): 8 fold
- reduction of the number of ALDH+ cells compared to the control [5]: 2.3 fold
- relative cytotoxicity (U87 glioblastoma cells; 48 h of incubation, U87): high
- IC50 (U87 glioblastoma cells; Homo sapiens, U-87 MG, 48 h): 161 nM
- MNTC (U87 glioblastoma cells; Homo sapiens, U-87 MG, 48 h, read-out: non-toxic concentration that reduced U87 cell viability by less than 10%): 50 nM
- death of hFF3 cells [6]: about 21%
- inhibition at 0.05 µM (U118 cells; U118, 7 50 nM): 26.8%
- inhibition at 0.1 µM (U118 cells; U118, 7 100 nM): 42.8%
- shape (aspect ratio) of TGF-β1-induced U118 cells [7]: restored the shape of TGF-β1-induced cells to that of the control cells
